Measurements published in US20240148745A1, “COMPOUNDS FOR USE IN PROGRESSIVE MULTIPLE SCLEROSIS” (FONDAZIONE CENTRO SAN RAFFAELE, priority 2021, published 2024).
Where two headings read alike, the source gives them in different places.

Columns and labels:
[1] = system: iPSC-derived neurons (DIV45)
Method: This protocol was modified from Yuchen Qi et al.^32 First, neural progenitors (NPCs) were generated from hiPSCs by dual-SMAD inhibition. Shortly, at day 0 iPSC colonies (confluent at 70-80%) were washed with PBS Dulbecco's w/o Calcium w/o Magnesium (Euroclone) and hiPSCs' maintenance medium (mTeSR™, StemCell Technologies) was replaced with neural induction medium composed by DMEM/F12 plus N2 medium (1×), B27 without RA supplement (0.5×) (Life Technology), added with SB431542 (10 μM) and LDN (500 nM). This medium was kept until day 4 (“induction”). At day 4, cells were splitted (1:3) with the same induction medium using Accutase®/Accumax™ (StemCell Technologies) dissociated solution. Entire medium was replaced daily up to days 14-16 until rosette formation was observed (“patterning”). At days 14-16, cells were detached by Accutase®/Accumax™ and re-plated on polyornitine/laminin/fibronectin coated MW96 or MW24 plates for terminal differentiation in Neurobasal medium supplemented with B27 (0.5×), BDNF (20 ng/ml), dbcAMP (500 μM), ascorbic acid (200 μM), PD0325901 (1 μM), SU5402 (5 μM), CHIR (3 μM), human recombinant insulin (5 μg/ml), supplemented with RI (Rock inhibitor) (1:3000) to reduce dissociation induced apoptosis. The half of differentiation medium was changed every 3-4 days, supplemented with 1 μg/ml laminin and DAPT (1-2 μM) until terminal maturation of neuronal population (MAP2+ cells). Cultures were characterized by immunocytochemistry and qRT-PCR and neuroprotective experiments were performed on days 30-40 of differentiation.
Evaluation of cytotoxicity of 160 selected compounds on iPSC-derived neurons (DIV45).

[2] = system: rat oligodendrocyte progenitor CG4 line; test: Differentiation assay on rat oligodendrocyte progenitor CG4 line (HCS, mCherry+); assay type: cell-based; settings: secondary screen of 49 selected compounds, 1 μM, 5 days
How it was run: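 Double-reporter CG4 cells (mCherry in mature oligodendrocytes, EGFP in all lineage stages) proliferated 24 h, then given compounds at 1 μM for 5 days of differentiation, ⅔ medium changed at day 3. 9cis-RA as positive control, basal medium and 0.1% DMSO as negative; triplicates imaged by HCS, 35 fields/well.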

[3] = system: iPSC-derived glutamatergic neurons; test: ROS (tBuOOH)-mediated neuroprotective assay on hNeu; assay type: cell-based, human; settings: control line CTR4, 1 μM, p<0.05
Method: Neuroprotective experiments were performed using iPSC-derived glutamatergic neurons from 3 healthy controls cultured for 30-40 DIV. Cells were pre-treated for 24 h with […] of compounds, vehicle (DMSO) or 5 nM Mito-Q (mitoquinone) served as a positive control. On the next day cells were incubated for 2 h with 100 µM of tert-butyl peroxide (tBuOOH, Sigma), then the medium was replaced and the viability readout by CCK8 viability assay kit (Dojindo) was performed on the following day. The cell viability was expressed as normalized Z score and compared to tBuOOH-treated cells with nonparametric Kruskal-Wallis test with Dunn's multiple comparisons correction.
32 “Front runners” and 7 compounds from short list were tested on iPSC-derived neurons from three control lines in ROS-mediated assay to evaluate a neuroprotective potential of selected compounds. Three independent experiments were performed for CTR4 and CTR8, FIG. 20 (A, C), while two independent experiments were performed for CTR7, FIG. 20 (B).

[4] = system: rat primary OPC cultures; test: Differentiation of rat primary OPC into MBP+ OLs; assay type: cell-based; settings: 96 h, 4 days of differentiation, read-out: MBP+ differentiation (MBP+/SOX10+ OLs plus compounds / plus basal medium)
Method: Secondary validation on primary rat OPC differentiation. Re-validation of the best performing compounds promoting OPC differentiation (fold change >1.5) was performed on primary rat OPC cultures in 96 well-plate run in triplicates by triple immunolabeling for CNPase, MBP and SOX10 as a readout. Compounds at […] were added for 4 days of differentiation and then cell cultures were imaged with ArrayScanXTI platform, number of MBP+OLs were quantified by semi-automated software. Basal medium served as a negative control, 9 cis-RA ([…]) was a positive control.
Re-validation of the 49 compounds selected from the short list (160 compounds) using rat primary OPC cultures (compounds tested in triplicates in 3 independent experiments. The secondary validation screen of these compounds performed on rat primary OPC cultures selected 17 best lead compounds with a pro-differentiation activity (MBP+/SOX10+OLs plus compounds/MBP+SOX10+ plus basal medium fold increase) induced a strong differentiation into MBP+OLs (fold increase >1.6). Results are shown in FIG. 7.

[5] = system: murine cortical neurons (14 DIV); test: NMDA-mediated neuroprotective assay (CCK8 viability); assay type: cell-based, mouse; settings: 1 μM, 3 h pre-treatment, NMDA 8 μM 24 h, p<0.05
Method: To assess neuroprotective activity of 160 selected non-toxic compounds on primary murine cortical neurons, obtained as described in the previous paragraph, ([…]), cultures were pre-treated with 1 μM compounds for either 3 or 24 hours, followed by 24 hours chronic stimulation with NMDA (8 μM) to induce neuronal damage. Each test plate included: a negative control (untreated), vehicle-treated control (0.02% vol/vol DMSO), a positive neurotoxic control—staurosporine 0.1 μM, a stressor—NMDA 8 μM, a positive neuroprotective control—NAC 300 μM, and a combination of stressor +neuroprotective molecule (NMDA+NAC). Cell viability was measured with Cell Counting Kit-8 assay compared to NMDA-treated control.
The potential neuroprotective activity of 160 selected non-toxic compounds was evaluated on murine cortical neurons (14 DIV) with either 3 h (FIG. 13) or 24 h compounds pre-treatment (FIG. 14). In assay with 3 h pre-treatment, 17 compounds were identified as potential NMDA-neuroprotective hits (marked with black asterisk in FIG. 13, stat. significant at p<0.05, Kruskal-Wallis test with post-hoc two-stage linear step-up procedure of Benjamini, Krieger and Yekutieli multiple comparison correction).

[6] = system: mouse cortical neurons; test: Morphological integrity evaluation, NMDA 8 μM (MAP2 neurite length and branching); assay type: cell-based; settings: 3 h pre-treatment, NMDA 8 μM 24 h; Z>0.5 criteria
Method: Apart of viability/metabolic readout in NMDA-mediated neurotoxicity assay, a neuronal structural integrity was evaluated by MAP2 staining. Mouse cortical neurons (14 DIV) cultured in MW96 plates were fixed with 4% paraformaldehyde (PFA). Fixed cells were incubated with blocking solution (PBS 1×, donkey serum 5%, Triton 0.1%) for 1-hour, primary antibody (rabbit α-MAP2, 1:250, Millipore) was applied in the same solution overnight at +4° C. […] Nuclei were stained with 4′-6-diamidino-2-phenylindole (DAPI, Roche). Microscopy was performed using ArrayScan™XTI (ThermoFisher) imaging platform. 15 images per well were acquired and analyzed by CellProfiler. Total neurite length and the total number of non-trunk branches were analyzed. Total neurite length and the total number of branching were evaluated from 15 images/well, each compound or control was tested in triplicates. The total neurite length and total number of branches were converted to a standardized Z-score using formula: Xij=((Xij−μ)/σ), where xij is the raw measurement of the compound located in well (i, j), and μ and σ are, respectively, the mean and the standard deviation of all measurements of the plate.^31
The morphological integrity of mouse cortical neurons upon chronic 24 h NMDA (8 μM) exposure with compounds pre-treatment (3 h) in preventive regimen was evaluated. Control (basal), DMSO, N-acetylcysteine (NAC) served as positive controls, while staurosporine and NMDA were negative controls.

Row | Structure (SMILES) | viability compared to DMSO ([1]; human) | CG4 differentiation compared with 9cis-RA positive control [2] | other results
1 | OC1CCC(Nc2nc(-c3ccccc3)nc3[nH]ccc23)CC1 (stereo not drawn) [Derenofylline] | 65-80% |  | 
2 | Oc1ccc([C@H]2COc3cc(O)ccc3C2)cc1 [Equol] |  | promoting differentiation significantly higher than 9cis-RA positive control | protection from tBuOOH insult [3]: protected from tBuOOH insult
3 | Cc1c(Cc2ccc3ccccc3n2)c2cc(F)ccc2n1CC(=O)O [0C000459, TIMAPIPRANT] | 65-80% | promoting differentiation significantly higher than 9cis-RA positive control | fold induction at 1 µM [4]: > 1.6; neuroprotection of viability/metabolic activity against NMDA [5]: hit compounds
4 | COc1cccc(OC)c1-c1cc(C(=O)NC2(C(=O)O)C3CC4CC(C3)CC2C4)nn1-c1ccnc2cc(Cl)ccc12 (stereo not drawn) [Reminertant] | 65-80% |  | 
5 | CCn1c(=O)c2c(nc(/C=C/c3ccc(OC)c(OC)c3)n2C)n(CC)c1=O [Istradefylline] | 65-80% |  | 
6 | CC1(C)CC(C)(C)CC(C)(N)C1 [Neramexane] |  | promoting differentiation significantly higher than 9cis-RA positive control | neuroprotection of viability/metabolic activity against NMDA [5]: hit compounds; preservation of neurite length and network integrity (branching) [6]: preserved both neurite length and the network integrity (branching); viability compared to DMSO [1]: 65-80%
7 | CC[C@@H](Oc1cccc(CN(CCCOc2ccc(OC)cc2)c2nc3ccccc3o2)c1)C(=O)O [K-877 Pemafibrate] |  |  | viability compared to DMSO [1]: 65-80%
8 | CNCc1ccc(C)c(NC(=O)c2ccc(Nc3nc(-c4ccccc4)c4ccccc4n3)cc2)c1 [BMS-833923] | 65-80% | promoting differentiation significantly higher than 9cis-RA positive control | 
9 | Cc1nc(C#Cc2ccnc(Cl)c2)c(C)n1-c1ccc(F)cc1 [Basimglurant] | 65-80% |  | preservation of neurite length and network integrity (branching) [6]: preserved both neurite length and the network integrity (branching)
